Results as given in patent US8030547B2, “Gene coding for acetolactate synthase” (priority 2002, dated 2011).

What was measured:
[1] = molecular target: T1, mutant ALS protein of Vg line (Oryza sativa subsp. japonica, UniProt Q6K2E8); experiment: Herbicide sensitivity of partially purified ALS protein (ALS activity inhibition), Vg line; type: biochemical, Oryza sativa var. Kinmaze; conditions: read-out: I50 (nM) Vg; partially purified ALS, 30° C., probit analysis
T1 construct: other: partially purified ALS, 30° C., probit analysis
T1 sequence (Q6K2E8 whole entry W548L, form open): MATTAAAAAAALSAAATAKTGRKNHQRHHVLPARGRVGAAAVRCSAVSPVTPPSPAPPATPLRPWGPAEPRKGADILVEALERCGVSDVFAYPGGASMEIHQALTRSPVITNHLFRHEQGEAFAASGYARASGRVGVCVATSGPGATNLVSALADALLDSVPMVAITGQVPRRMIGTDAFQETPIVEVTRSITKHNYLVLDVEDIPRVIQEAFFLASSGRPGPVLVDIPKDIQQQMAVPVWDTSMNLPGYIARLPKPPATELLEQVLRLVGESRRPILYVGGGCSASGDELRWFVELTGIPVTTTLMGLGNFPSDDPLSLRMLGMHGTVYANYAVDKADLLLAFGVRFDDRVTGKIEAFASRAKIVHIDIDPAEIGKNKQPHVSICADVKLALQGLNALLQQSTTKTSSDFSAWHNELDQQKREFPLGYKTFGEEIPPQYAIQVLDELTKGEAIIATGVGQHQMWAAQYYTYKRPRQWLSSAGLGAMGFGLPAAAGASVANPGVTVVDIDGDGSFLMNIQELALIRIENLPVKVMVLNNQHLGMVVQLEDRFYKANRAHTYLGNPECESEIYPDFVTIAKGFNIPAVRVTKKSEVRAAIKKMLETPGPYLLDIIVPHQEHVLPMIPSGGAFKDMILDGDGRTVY
Description: (§1) First, 200 g or more of resistant mutant was prepared by a liquid culture method (no supplementation with bispyribac-sodium), using a composition as shown in Table 3 excluding Gelrite. Then, about 150 g of the resistant mutant was homogenized using Hiscotron in a volume of buffer-1 [100 mM potassium phosphate buffer (pH 7.5) containing 20% (v/v) glycerol, […] thiamin pyrophosphate (TPP), 10 μM flavin adenine dinucleotide (FAD), 0.5 mM MgCl2, and a volume of polyvinyl polypyrrolidone one-tenth that of tissue volume] 3-fold greater than tissue volume. The homogenate was filtered through nylon gauze, and then centrifuged at 15000×g for 20 minutes. Ammonium sulfate was added to the centrifuged supernatant to 50% saturation, and then allowed to stand in ice for approximately 1 hour. The mixture was again centrifuged at 15000×g for 20 minutes, and then the precipitated fraction was dissolved in approximately 30 ml of buffer-2 [10 mM Tris hydrochloric acid buffer (pH 7.5) containing 20% (v/v) glycerol, 0.5 mM TPP and 0.5 mM MgCl2]. The mixture was again centrifuged at 15000×g for 20 minutes, and then the supernatant fraction was applied to a Sephadex G-25 (Amersham Bioscience). About 40 ml of the fraction that had passed through the column was collected as a crude enzyme solution.
(§2) Next, the protein concentration of the crude enzyme solution was measured by the Bradford method according to the manual of Bio-Rad Protein Assay. The crude enzyme solution was then filtered through a Whatman filter (Whatman), and then the crude enzyme solution in an appropriate protein amount (10 to 15 ml) was applied to three vertically-connected HiTrap Q columns (Amersham Bioscience) using a FPLC device (Amersham Bioscience). After protein component was adsorbed using HiTrap Q, unadsorbed fractions were washed out using buffer-2 having a volume 3 to 5 fold greater than the bed volume. Then, the adsorbed protein component was eluted using an eluate having a volume 10 fold greater than the bed volume (150 ml). Here, the eluate was prepared by dissolving KCl with a linear concentration gradient (0 to 0.4 M) into buffer-2. The eluate containing the eluted protein component was apportioned, 5 ml each, into a plurality of test tubes for apportioning. Further, to stabilize ALS protein contained in the eluted protein component, 0.5 ml of buffer-2 containing 20 mM sodium pyruvate had been previously added to each test tube for apportioning.
(§3) ALS activity resulting from the mutant ALS protein contained in the eluted fractions apportioned into each test tube for apportioning was measured as follows. A reaction solution to be used in a measurement reaction was prepared by mixing an eluted fraction to be measured with a solution comprising 20 mM sodium pyruvate, 0.5 mM TPP, 0.5 mM MgCl2, 10 μM FAD and 20 mM potassium phosphate buffer (pH 7.5). One ml of this reaction solution was used. After the eluted fraction to be measured was added, the measurement reaction was performed at 30° C. for 40 to 60 minutes. Then, the reaction was stopped by addition of 0.1 ml of 6N sulfuric acid (or 0.25 N sodium hydroxide).
(§4) After the reaction was stopped, the reaction solution was incubated at 60° C. for 10 minutes, thereby converting acetolactate contained in the reaction solution to acetoin.
(§5) Then, to quantify acetoin contained in the reaction solution, 1 ml of 0.5% (w/v) creatine and 1 ml of 5% (w/v) α-naphthol dissolved in 2.5 N sodium hydroxide was added to the reaction solution, followed by incubation at 37° C. for 10 minutes. Acetoin was then quantified by color comparison of the absorbance (at 525 nm) of the reaction solution, thereby evaluating ALS activity. In addition, since the reaction solution contained a small amount of sodium pyruvate, reaction time 0 was used as control.
(§6) Using the enzyme solution containing the mutant ALS protein, sensitivity of the mutant ALS protein to bispyribac-sodium, chlorsulfuron and imazaquin was examined. […]

[2] = test system: mutant ALS protein of Vg line; experiment: as above; type: biochemical, Oryza sativa var. Kinmaze; conditions: I50 of the resistant mutant divided by I50 of the wild type
Description: as §1, §2, §3, §4, §5, §6

[3] = molecular target: T2, GST fusion W548L mutant ALS protein (Oryza sativa subsp. japonica, UniProt Q6K2E8, W548L); experiment: Herbicide sensitivity of ALS protein expressed in E. coli (crude enzyme solution), W548L; type: biochemical, rice (Oryza sativa var. Kinmaze); conditions: for RS ratio: W548L mutant vs wild type
T2 construct: an expression vector having the full-length wild type ALS cDNA incorporated into the Eco RI site of pGEX-2T; made in house; host or cells: E. coli JM109, pGEX 2T(ALS-W548L mutant); crude supernatant
T2 sequence (Q6K2E8 44-644 W548L): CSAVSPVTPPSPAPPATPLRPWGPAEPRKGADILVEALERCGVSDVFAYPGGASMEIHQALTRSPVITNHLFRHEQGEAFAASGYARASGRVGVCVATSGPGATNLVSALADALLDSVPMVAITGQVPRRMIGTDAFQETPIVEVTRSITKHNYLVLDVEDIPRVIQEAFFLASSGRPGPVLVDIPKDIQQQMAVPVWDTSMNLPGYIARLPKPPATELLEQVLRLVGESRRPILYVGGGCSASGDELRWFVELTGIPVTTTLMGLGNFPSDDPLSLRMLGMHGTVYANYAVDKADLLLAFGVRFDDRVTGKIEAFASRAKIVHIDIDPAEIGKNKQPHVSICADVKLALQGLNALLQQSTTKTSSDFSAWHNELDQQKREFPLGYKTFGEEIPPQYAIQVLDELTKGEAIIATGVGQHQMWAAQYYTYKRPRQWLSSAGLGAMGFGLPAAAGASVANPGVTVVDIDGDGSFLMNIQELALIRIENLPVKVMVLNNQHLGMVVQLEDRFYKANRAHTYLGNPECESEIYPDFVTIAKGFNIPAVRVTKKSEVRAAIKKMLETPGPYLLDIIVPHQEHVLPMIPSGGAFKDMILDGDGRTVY
Description: as §3, §4, §5
E. coli transformed with pGEX-2T(ALS-wild) constructed in Example 3(5), E. coli transformed with pGEX-2T(ALS-W548L mutant) constructed in Example 5, E. coli transformed with pGEX-2T(ALS-S627I mutant) constructed in Example 5, E. coli transformed with pGEX-2T(ALS P171H mutant) constructed in Example 6, E. coli transformed with pGEX-2T(ALS R172S mutant) constructed in Example 6, E. coli transformed with pGEX-2T(ALS P171H, R172S mutant) constructed in Example 7, E. coli transformed with pGEX-2T(ALS-P171H, W548L mutant) constructed in Example 8, E. coli transformed with pGEX-2T(ALS-P171H, S627I mutant) constructed in Example 8, and E. coli transformed with pGEX-2T(ALS-P171H, W548L, S627I mutant) constructed in Example 9 were respectively shake-cultured (pre-culture) at 27° C. in 2 ml of LB liquid medium containing ampicillin. These types of E. coli were respectively cultured in 250 ml of LB liquid medium containing ampicillin using 1 ml of the pre-culture solution. After culturing overnight, 1 mM IPTG was added to the media, and then culturing was performed for a further 3 to 4 hours, so that the expression of GST fusion protein was induced. In addition, the cells were stored at −80° C. after washing.
Preparation and purification of ALS from E. coli were performed by the following method. First, the pellet of the transformant E. coli stored at −80° C. was suspended in ALS extraction buffer (potassium phosphate buffer (pH 7.5) containing 30% glycerol and 0.5 mM MgCl2). Specifically, 2.5 ml of the buffer was added to the pellet obtained from 50 ml of the culture solution. The suspension was subjected to ultrasonication (Heat Systems-Ultrasonics, Sonicator W-225R, micro chip, output control 8, interval of approximately 1 second, twice (40 seconds each)), and subjected to centrifugation at 15000×g, 4° C. for 20 minutes, thereby obtaining the supernatant as a crude enzyme solution.
Herbicide sensitivity of the wild type ALS protein and that of mutant ALS protein were examined using the 9 types of crude enzyme solutions obtained in Example 10. Herbicide sensitivity test was performed according to procedures almost the same as those in Example 2. However, in this example, reaction temperature was 37° C., reaction time was 30 minutes, and 10 mM valine was added to the reaction solution to inhibit ALS activity derived from E. coli. Further, three types of herbicides, bispyribac-sodium, pyrithiobac-sodium, and pyriminobac, were used as PC herbicides; chlorsulfuron was used as a sulfonylurea herbicide; and imazaquin was used as an imidazolinon herbicide. […]

Structure (SMILES)	IC50 [1] [nM]	RS ratio Vg [2]	RS ratio [3]	inhibition at 100 µM ([3]; read-out: inhibition % at the highest concentration among the concentrations tested, W548L mutant, in 100 μM) [%]	IC50 [3] [µM]
CC(C)C1(C)N=C(c2nc3ccccc3cc2C(=O)O)NC1=O (stereo not drawn) [imazaquin]	44100	29.8	>45	14	
COc1nc(C)nc(NC(=O)NS(=O)(=O)c2ccccc2Cl)n1 [chlorsulfuron]	495	28.6	760		9.9
COc1cc(OC)nc(Oc2cccc(Oc3nc(OC)cc(OC)n3)c2C(=O)O)n1 [bispyribac-sodium]	97.2	17.3	520		3.3
